According to patent publication US10640556B2, “Anti amphiregulin antibodies, compositions comprising same and uses thereof” (Yeda Research and Development Co. Ltd., priority 2015, dated 2020):

How the values were obtained:
Caspase-3 = Caspase-3 cleavage immunoblot in OVCAR5 cells; format: cell-based, human; conditions: cisplatin 5 μg/mL overnight as positive control
Description: FIGS. 4A-4D illustrate that depletion of AREG expression inhibits tumorigenic growth of human ovarian cancer cells. FIG. 4A is a graph illustrating results of OVCAR5 ovarian cancer cells treated with lentiviral expression constructs, either a scrambled shRNA or an AREG-specific shRNA. Conditioned media were collected three days later and the levels of secreted AREG were assessed using ELISA; FIG. 4B is a graph illustrating the growth rates of shAREG or shControl OVCAR5 cells measured using the MTT assay. Shown are means±S.D. values of hexaplicates (*P<0.005, t-test); FIG. 4C is a photograph illustrating Caspase-3 cleavage as assessed using immunoblotting and OVCAR5 sub-lines stably expressing three different shAREGs, or shControl. The assay was performed either in full medium or under serum starvation. Overnight treatment with cisplatin (5 μg/mL) was used as a positive control. […] Female nude mice (6 weeks old; 10 per group) were inoculated subcutaneously with OVCAR5 ovarian cells (3×10^6 per animal) pre-treated with either a scrambled shRNA or the AREG-specific shRNA. Tumor volumes were measured as indicated. Data points are presented as mean volume±S.D. values (*P<0.005, t-test).

MLS ovarian cancer cells = assay: MLS ovarian tumor xenograft in nude mice; format: in vivo; conditions: MLS tumors, AR30 100 μg/mouse twice a week, cisplatin 5 mg/kg, FIG. 7B
Description: FIG. 7A, female nude mice (6 weeks old) were inoculated subcutaneously with MLS ovarian cancer cells (2×10^6 per animal). Once tumors became palpable, mice were randomized into two groups. Eleven mice were injected intraperitoneally with an anti-AREG mAb (AR30; 200 μg/mouse; twice a week, on days: 8, 11, 14, 17, and 21). The control group also included 11 mice. Shown are means±S.D. values; FIG. 7B, female nude mice (6 weeks old) were inoculated subcutaneously with MLS ovarian cancer cells (2×10^6 per animal). Once tumors became palpable, mice were randomized into four groups. One group (8 mice) was injected intraperitoneally with the AR30 mAb (100 μg/mouse twice a week, on days: 8, 14, 17, 21, 24 and 28). Another group (8 mice) was treated with cisplatin (5 mg/kg; on days 8 and 21). The fourth group was treated with a combination of mAb AR30 and cisplatin. The control group included 12 mice; and FIG. 7C, the indicated MLS tumors were excised, and their average weights determined. Representative tumors were photographed.
All animal procedures were approved by the Weizmann Institute of Science's review board. Female athymic NCr-nude mice (6 weeks old) were inoculated subcutaneously with 2×10^6 human ovarian MLS cancer cells. Once tumors became palpable (5-7 days), the mice were randomized into groups and injected intraperitoneally at the indicated time points with the indicated monoclonal antibodies, chemotherapy or the combination. Tumor volumes were monitored twice a week, and body weights were measured once a week.

[1] = test system: MLS ovarian cancer cells and A549 lung cancer cells; assay: ELISA of ligand secretion by MLS and A549 cells; format: cell-based, human; conditions: ovarian (MLS) and lung (A549) cancer cells exposed to cisplatin
Description: (§1) FIGS. 5C-5F illustrate that AREG, unlike HB-EGF and TGF-alpha, undergoes up-regulation in response to a chemotherapeutic agent. FIG. 5C is a graph illustrating results of MLS cells transfected with a luciferase reporter containing the promoter region of TGF-alpha. The luciferase activity derived from the Renilla luciferase was normalized to that derived from the firefly luciferase (co-transfection control). Twenty-four hours after transfection, increasing concentrations of cisplatin were added, and 24 hours later the cells were subjected to luciferase assays; FIG. 5D is a graph illustrating assessment of GAPDH promoter activity as described in FIG. 5C; FIG. 5E is a graph illustrating the results of MLS ovarian cancer cells exposed to increasing concentrations of cisplatin. Cells were assessed for the secretion of the indicated ligands using ELISA; and FIG. 5F is a graph illustrating assessment of the A549 lung cancer cell line analyzed as in FIG. 5E. Human cancer cell lines were seeded in 10 cm plates, covered with medium (6 mL) and incubated for 4 days. The supernatants were collected and centrifuged at 1200 rpm for 5 minutes.

promoter region of AREG [2] = assay: AREG promoter luciferase reporter in A549 cells; format: cell-based, human; conditions: A549 lung cells, increasing concentrations of cisplatin, 48 hours
Description: (§2) FIGS. 5A-5B illustrate transcriptional activation of the AREG promoter by cisplatin. FIG. 5A is a graph illustrating the results of MLS cells transfected with a luciferase reporter containing the promoter region of AREG. Luciferase activity derived from the Renilla luciferase, was determined and normalized to that derived from the firefly luciferase reporter. Twenty-four hours after transfection, increasing concentrations of cisplatin were added and 48 hours later the cells were subjected to luciferase assay; and FIG. 5B illustrates the results of A549 lung cancer cells treated as in FIG. 5A. Averages of triplicates and S.D. values (bars) are presented (*P<0.03, **P<0.01, t-test). For promoter reporter assays, MLS and A549 cells were co-transfected with a Renilla luciferase plasmid containing the promoter region of AREG, TGF-alpha, a positive control of promoter activity, namely GAPDH, or a random control vector R01 used as a negative control (SwitchGear Genomics). Additionally, the pGL3-Control vector containing Firefly luciferase (Promega) was transfected as a control for transfection efficiency. Promoter activity was determined using the dual-luciferase reporter assay system according to the manufacturer's instructions (Promega). Renilla luciferase luminescence values were normalized to Firefly luminescence and quantified relative to control.

[3] = test system: promoter region of TGF-alpha; assay: TGF-alpha promoter luciferase reporter in MLS cells; format: cell-based, human; conditions: increasing concentrations of cisplatin, 24 hours
Description: as §1, with “[…] Promoter activity was determined using the dual-luciferase reporter assay system according to the manufacturer's instructions (Promega). Renilla luciferase luminescence values” for “Human cancer cell lines”, “normalized to Firefly luminescence” for “seeded in 10 cm plates, covered with medium (6 mL)”, “quantified relative to control.” for “incubated for 4 days. The supernatants were collected and centrifuged at 1200 rpm for 5 minutes.”

promoter region of AREG [4] = assay: AREG promoter luciferase reporter in MLS cells; format: cell-based, human; conditions: MLS ovarian cells, increasing concentrations of cisplatin, 48 hours
Description: as §2

SMILES: N.N.[Cl][Pt][Cl] [cisplatin]
- Caspase-3 cleavage (Caspase-3): cleaved only in cells incubated for 12 hours in the presence of cisplatin
- tumor growth (MLS ovarian cancer cells): only mildly inhibited
- secretion of EGF-family ligands to the medium [1]: increased secretion of AREG, not EGF, TGF-alpha or HB-EGF
- increase in AREG promoter reporter activity (promoter region of AREG [2]): 1.5 fold
- TGF-alpha promoter reporter activity [3]: no consistent, cisplatin-induced changes in TGF-alpha induction
- increase in AREG promoter reporter activity (promoter region of AREG [4]): 2 fold
